Bounds are passed on as bounds.

Series [1] in a line: Selectivity index, ratio of MCC for African green monkey Vero E6 cells to IC50 for HSV-1 F+ infected in African green monkey Vero E6 cells. Also on record: species or system Vero C1008.
The subject of series [2] is Human alphaherpesvirus 1. In words: Antiviral activity against foscarnet-resistant HSV-1 F+ infected in African green monkey Vero E6 cells assessed as reduction in virus-induced cytopathic effect. The series is classed as functional. The conditions noted are these: Human alphaherpesvirus 1, F+, Vero C1008.
The subject of series [3] is Human alphaherpesvirus 1. In words: Antiviral activity against HSV-1 L2/Rp-ACV/2 infected in African green monkey Vero E6 cells assessed as reduction in virus-induced cytopathic effect. The conditions noted are these: Human alphaherpesvirus 1, L2/Rp-ACV/2, Vero C1008. The series is classed as functional.
The nature of series [4]: Selectivity index, ratio of MCC for African green monkey Vero E6 cells to IC50 for acyclovir-resistant HSV-1 L2 infected in African green monkey Vero E6 cells. Also on record: species or system Vero C1008.
Series [5] has as its system Human alphaherpesvirus 1. In words: Antiviral activity against acyclovir-resistant HSV-1 L2 infected in African green monkey Vero E6 cells assessed as reduction in virus-induced cytopathic effect. The series is classed as functional. The conditions noted are these: Human alphaherpesvirus 1, L2, Vero C1008.
The test system of series [6] is Human alphaherpesvirus 1. Briefly: Antiviral activity against acyclovir and foscarnet-resistant HSV-1 L2 infected in African green monkey Vero E6 cells assessed as reduction in virus-induced cytopathic effect. The series is classed as functional. The conditions noted are these: Human alphaherpesvirus 1, L2, Vero C1008.
A short description of series [7]: Selectivity index, ratio of MCC for African green monkey Vero E6 cells to IC50 for acyclovir and foscarnet-resistant HSV-1 L2 infected in African green monkey Vero E6 cells. Also on record: species or system Vero C1008.
A short description of series [8]: Selectivity index, ratio of MCC for African green monkey Vero E6 cells to IC50 for HSV-1 L2 infected in African green monkey Vero E6 cells. Also on record: species or system Vero C1008.
Series [9] deals with Human alphaherpesvirus 1. In words: Antiviral activity against HSV1 L2 infected in African green monkey Vero E6 cells assessed as reduction in virus-induced cytopathic effect. Format: functional. The conditions noted are these: Human alphaherpesvirus 1, L2, Vero C1008.
Series [10] can be described thus: Selectivity index, ratio of MCC for African green monkey Vero E6 cells to IC50 for HSV-1 L2/Rp-ACV/2 infected in African green monkey Vero E6 cells. Also on record: species or system Vero C1008.
Series [11] relates to Human alphaherpesvirus 1. In words: Antiviral activity against acyclovir and cidofovir-resistant HSV-1 L2 infected in African green monkey Vero E6 cells assessed as reduction in virus-induced cytopathic effect. The series is classed as functional. Conditions: Human alphaherpesvirus 1, L2, Vero C1008.
Series [12] in a line: Cytotoxicity against African green monkey Vero E6 cells measured after 3 days by trypan blue assay. The series is classed as cell-based, Vero C1008. Conditions: chlorocebus sabaeus.
A short description of series [13]: Selectivity index, ratio of MCC for African green monkey Vero E6 cells to IC50 for acyclovir and cidofovir-resistant HSV-1 L2 infected in African green monkey Vero E6 cells. Also on record: species or system Vero C1008.

As for `NC(=O)c1ncn([C@@H]2O[C@H](CO)[C@@H](O)[C@H]2O)n1` [RIBAVIRIN], the “Selectivity Index” value in series [1] is listed as more than 4; in series [4], more than 4; in series [7], more than 4; in series [8], more than 8; in series [10] it was more than 4; in [13], more than 4. Moreover, the IC95 in [2] was more than 4100 µM; in series [3], more than 4100 µM; in series [5] it was more than 4100 µM; in series [6], more than 4100 µM; in [9], 2050 µM; in [11], more than 4100 µM. Moreover, the IC50 in series [3] amounted to 1020 µM; in [5], 1020 µM; in series [6], 1020 µM; in [9] it was 512 µM; in series [11] it was 1020 µM. The compound also registered an MCC at 72 h in series [12] of more than 4100 µM.
On to `CC(C)Nc1nc2cc(Cl)c(Cl)cc2n1[C@H]1O[C@@H](CO)[C@H](O)[C@@H]1O` [MARIBAVIR], for which, in [8], the “Selectivity Index” value was found to be 1. In series [9], the IC50 was 665 µM and the concentration for an effect of 95% (IC95) was more than 665 µM. In addition, the MCC at 72 h in [12] was determined as 665 µM.
Turning to `Nc1ccn(C[C@@H](CO)OCP(=O)(O)O)c(=O)n1.O.O` [CIDOFOVIR], the “Selectivity Index” value is recorded as more than 13 in [1]; more than 26 in [4]; more than 51 in [7]; more than 26 in [8]; more than 204 in [10]; more than 6.4 in series [13]. The IC50 in series [2] is 27.9 µM; in [3] it was 1.8 µM; in series [5], 14 µM; in series [6] it was 7 µM; in series [9], 14 µM; in series [11], 112 µM. For the same compound, the 95% effect concentration (IC95) in series [2] came out at 448 µM; in series [3], 27.9 µM; in series [5], 55.9 µM; in [6], 27.9 µM; in [9], 55.9 µM; in series [11], 895 µM. The MCC at 72 h in series [12] is more than 358 µM.
As for `Nc1nc2c(ncn2COCCO)c(=O)[nH]1` [ACYCLOVIR], the “Selectivity Index” value in [1] is given as more than 128; in [4], more than 1; in series [7], more than 1; in series [8], more than 256; in series [10], 16; in [13], more than 26. Further, the IC50 was 3.5 µM in [2]; 27.8 µM in [3]; more than 444 µM in [5]; more than 444 µM in series [6]; 1.73 µM in series [9]; 17.3 µM in [11]. Also, the IC95 in series [2] was 13.9 µM; in series [3], 111 µM; in [5], more than 444 µM; in [6], more than 444 µM; in series [9] it was 6.9 µM; in [11], 139 µM. Moreover, the MCC at 72 h in series [12] is more than 444 µM.
Consider `O.O.O.O.O.O.O=C([O-])P(=O)([O-])[O-].[Na+].[Na+].[Na+]`, for which the “Selectivity Index” value in [1] is given as 1; in series [4] it was 8; in series [7], 2; in series [8], 8; in [10] it was 16; in [13], 8. The half-inhibitory concentration (IC50) in series [2] came to 833 µM; in [3], 52 µM; in series [5], 104 µM; in series [6], 417 µM; in [9], 104 µM; in [11], 104 µM. Also, the IC95 in [2] was more than 833 µM; in [3] it was 104 µM; in series [5], 208 µM; in [6], more than 833 µM; in series [9], 208 µM; in series [11] it was 208 µM. The MCC at 72 h in series [12] was 833 µM.
For the compound `Nc1nc2cc(F)c(F)cc2n1[C@H]1C[C@H](O)[C@@H](CO)O1`, in series [8], the “Selectivity Index” value is listed as more than 4. In [9], the 50% inhibitory concentration (IC50) turned out to be 876 µM and the IC95 is 3510 µM. The compound also gave an MCC at 72 h in series [12] of more than 3500 µM.

The values above are taken from ChEMBL document CHEMBL4017472, “New modified 2-aminobenzimidazole nucleosides: Synthesis and evaluation of their activity against herpes simplex virus type 1” (Bioorg Med Chem Lett, 2017).
